# Like-named read-outs stand apart in the source and are kept apart here.
# Experiments:
# [1] = tested on: Oligodendrocyte progenitor cells (OPCs); test: In vitro OPC differentiation assay, GPR17 expression (immunocytochemistry); details: 72 hours; for GPR17 Fold Induction (Over Vehicle; 3 μM): 3 μM (10× concentration, final 0.3 μM)
# [2] = tested on: Oligodendrocyte progenitor cells (OPCs); test: In vitro OPC differentiation assay, MBP expression (immunocytochemistry)
# PDGFRα = PDGFRα (Homo sapiens (Human), UniProt P16234); test: PDGFRα kinase enzyme assay (Promega PDGFRα Kinase Enzyme System, ADP-Glo); assay type: biochemical; details: 150 uM ATP
# Sequence of PDGFRα (P16234 24-1089): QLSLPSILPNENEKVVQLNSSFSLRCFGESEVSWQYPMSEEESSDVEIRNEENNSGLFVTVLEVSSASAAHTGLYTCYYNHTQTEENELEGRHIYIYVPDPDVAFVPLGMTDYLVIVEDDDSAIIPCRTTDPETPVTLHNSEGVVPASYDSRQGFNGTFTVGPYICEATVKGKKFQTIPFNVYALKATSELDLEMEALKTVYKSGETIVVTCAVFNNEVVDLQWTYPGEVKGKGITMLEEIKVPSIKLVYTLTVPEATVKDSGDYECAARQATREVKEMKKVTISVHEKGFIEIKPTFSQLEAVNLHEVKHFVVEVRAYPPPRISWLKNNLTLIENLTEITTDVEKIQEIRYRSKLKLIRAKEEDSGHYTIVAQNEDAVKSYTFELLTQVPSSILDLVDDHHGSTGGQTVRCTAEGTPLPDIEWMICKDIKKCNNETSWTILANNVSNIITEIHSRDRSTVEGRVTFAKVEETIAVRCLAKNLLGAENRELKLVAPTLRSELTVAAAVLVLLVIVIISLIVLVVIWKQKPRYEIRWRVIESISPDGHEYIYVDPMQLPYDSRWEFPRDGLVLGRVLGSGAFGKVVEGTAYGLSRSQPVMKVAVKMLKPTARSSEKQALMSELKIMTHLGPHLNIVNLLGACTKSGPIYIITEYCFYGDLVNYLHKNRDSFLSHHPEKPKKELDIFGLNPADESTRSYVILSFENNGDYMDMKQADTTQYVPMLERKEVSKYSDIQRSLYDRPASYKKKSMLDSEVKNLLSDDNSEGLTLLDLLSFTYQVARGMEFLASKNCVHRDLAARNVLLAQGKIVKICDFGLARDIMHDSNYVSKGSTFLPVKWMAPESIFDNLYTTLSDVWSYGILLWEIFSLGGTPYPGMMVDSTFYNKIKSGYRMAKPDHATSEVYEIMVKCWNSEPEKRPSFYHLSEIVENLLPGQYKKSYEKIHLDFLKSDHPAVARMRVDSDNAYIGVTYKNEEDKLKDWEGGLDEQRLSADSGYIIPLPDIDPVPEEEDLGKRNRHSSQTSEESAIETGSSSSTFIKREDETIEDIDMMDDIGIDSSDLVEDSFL
# Outline: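 Purified PDGFRα protein (20 ng) reacted with test compound per the Promega kinase system protocol. ADP formed was measured by ADP-Glo luminescence against a standard curve, giving IC50.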
# [3] = tested on: GPR17+ cells (newly differentiated oligodendrocytes); test: In vivo OPC differentiation, GPR17+ cells in brain; details: Mus musculus, po, 24 h, read-out: GPR17 Fold Induction (Over Vehicle)
# Description: The ability of newly constructed compounds to drive OPC differentiation and myelination in vivo was tested. The ability of these compounds to drive OPC differentiation in vivo was tested using GPR17 as an indicator of newly differentiated oligodendrocytes.
# Compounds were delivered PO or IP either QD or BID. Mice were dosed once, transiently, or continuously through the treatment period, which ranged from 1-3 days.
# Mice were euthanized by isoflurane exposure and transcardially perfused with 14 mL of PBS (Sigma Cat #P4417-50TAB) followed by 22 mL of 3.2% paraformaldehyde in PBS. The brains were removed and postfixed for a minimum of 24 hours in 20 mL of 3.2% paraformaldehyde.
# 50-micron floating sections were cut using a Leica VT1200S vibratome. Every 24th section, extending through the antero-posterior extent of the brain, was stained. The selected brain sections were washed three times in PBS for 3 minutes each. The floating sections were incubated in the primary antibodies (see Table 10, below) diluted in blocking solution overnight at room temperature on a shaker. […] The next day, the sections were again washed three times in PBS for 3 minutes each and then incubated in the secondary antibodies diluted in blocking solution for 2 hours at room temperature on a shaker. After incubation, the sections were washed three times in PBS for 3 minutes each and mounted on a slide to be imaged using the Olympus Slide Scanner VS200.
# The images were analyzed using a custom protocol developed using Visiopharm software to count GPR17+ cells. Cells were considered GPR17+ if they contained an Olig2 positive nucleus, and intense GPR 17 staining that filled their processes. Statistical analysis was done using one-way ANOVA with multiple comparison in GraphPad Prism software.
# [4] = 5 μM (10× concentration, final 0.5 μM), fold change over vehicle
# [5] = 72 hours of treatment, fold change over vehicle
# [6] = 11-point dose response, 10,000 nM to 0.169 nM, BLQ = below limit of quantitation, read-out: IC50 Values on PDGFRα Kinase Inhibition, IC50
# [7] = 20 ng purified PDGFRα, Poly (Glu4Tyr1) substrate, two hours, 11-point dose response, read-out: IC50 Values on PDGFRα Kinase Inhibition
GPR17 Fold Induction (Over Vehicle; 3 μM) ([1]; fold change over vehicle),"GPR17 Fold Induction (Over Vehicle; 5 μM) [1, 4]","MBP Fold Induction (Over vehicle) [2, 5]",IC50 (PDGFRα; [6]) [µM],IC50 (PDGFRα; [7]) [µM],"GPR17 Fold Induction (Over Vehicle; 5 μM) ([1]; primary rat OPCs, 5 μM (10x; final 0.5 μM per method), percent GPR17+ cells as fold change over vehicle)","MBP Fold Induction (Over vehicle) ([2]; primary rat OPCs, 72 hours, 3 uM (10x; final 0.3 uM per method), percent MBP+ cells as fold change over vehicle)",SMILES,fold induction at 3.3 mg/kg [3]
5.25,2.94,9.82,4.01,,,,"Cn1cc(-c2ccc3c(N4CCN(C(=O)CCc5ccccc5)CC4)cnn3c2)cn1 [Compound 1, 6-(1-methyl-1H-pyrazol-4-yl)-3-[4-(3-phenylpropanoyl)piperazin-1-yl]pyrazolo[1,5-a]pyridine]",1.06
4.12,3.69,1.56,0.883,< 1,,,"Cn1cc(-c2ccc3c(N4CCN(C(=O)OCC(C)(C)C)CC4)cnn3c2)cn1 [Compound 3, 2,2-dimethylpropyl 4-[6-(1-methyl-1H-pyrazol-4-yl)pyrazolo[1,5-a]pyridin-3-yl]piperazine-1-carboxylate]",1.45
7.08,5.22,1.92,0.685,,,,"Cn1cc(-c2ccc3c(N4CCC(c5ncc(Cc6ccccc6)cn5)C4)cnn3c2)cn1 (stereo not drawn) [Compound 36, 3-[3-(5-benzylpyrimidin-2-yl)pyrrolidin-1-yl]-6-(1-methyl-1H-pyrazol-4-yl)pyrazolo[1,5-a]pyridine]",
5.81,7.65,2.95,0.673,,,,"Cn1cc(-c2ccc3c(N4CCCN(c5ncc(Cc6ccccc6)cn5)CC4)cnn3c2)cn1 [Compound 37, 3-[4-(5-benzylpyrimidin-2-yl)-1,4-diazepan-1-yl]-6-(1-methyl-1H-pyrazol-4-yl)pyrazolo[1,5-a]pyridine]",
4.28,3.74,1.75,0.639,,,,"Cn1cc(-c2cn3ncc(N4CCN(C(=O)OC(C)(C)C)CC4)c3cn2)cn1 [Compound 44, Tert-butyl 4-[6-(1-methyl-1H-pyrazol-4-yl)pyrazolo[1,5-a]pyrazin-3-yl)piperazine-1-carboxylate]",
5.00,,1.82,3.14,,,,"C[C@@H](OC(=O)N1CCN(c2cnn3nc(-c4cnn(C)c4)ccc23)CC1)c1ccccc1 [Compound 50, (R)-1-phenylethyl 4-(6-(1-methyl-1H-pyrazol-4-yl)pyrazolo[1,5-b]pyridazin-3-yl)piperazine-1-carboxylate]",
5.14,2.52,2.41,0.423,,,,"Cn1cc(-c2ccc3c(C4=CCN(c5ncc(Cc6ccccc6)cn5)C4)cnn3c2)cn1 [Compound 51, 3-[1-(5-benzylpyrimidin-2-yl)-2,5-dihydro-1H-pyrrol-3-yl]-6-(1-methyl-1H-pyrazol-4-yl)pyrazolo[1,5-a]pyridine]",
5.18,,1.71,0.67,,,,"Cn1cc(-c2ccc3c(N4CCN(c5ncc(Cc6ccc(Cl)cc6)cn5)CC4)cnn3c2)cn1 [Compound 65, 3-{4-[5-(4-chlorobenzyl)pyrimidin-2-yl]piperazin-1-yl}-6-(1-methyl-1H-pyrazol-4-yl)pyrazolo[1,5-a]pyridine]",
9.66,,25.00,0.00527,,,,"Cn1cc(-c2ccc3c(N4CCN(c5ncc(C(O)c6ccccc6)cn5)CC4)cnn3c2)cn1 (stereo not drawn) [Compound 71, (2-{4-[6-(1-Methyl-1H-pyrazol-4-yl)pyrazolo[1,5-a]pyridin-3-yl]piperazin-1-yl}pyrimidin-5-yl)(phenyl)methanol]",
7.19,,5.83,0.563,,,,"Cn1cc(-c2cnc3c(N4CCN(c5ncc(C(O)c6ccc(F)cc6)cn5)CC4)cnn3c2)cn1 (stereo not drawn) [Compound 74, (4-Fluorophenyl)(2-{4-[6-(1-methyl-1H-pyrazol-4-yl)pyrazolo[1,5-a]pyrimidin-3-yl]piperazin-1-yl}pyrimidin-5-yl)methanol]",
6.36,,2.49,3.88,,,,"Cn1cc(-c2ccc3c(NC4CN(c5ncc(Cc6ccccc6)cn5)C4)cnn3c2)cn1 [Compound 131, N-(1-(5-benzylpyrimidin-2-yl)azetidin-3-yl)-6-(1-methyl-1H-pyrazol-4-yl)pyrazolo[1,5-a]pyridin-3-amine]",
4.10,,2.93,1.14,,,,"Cn1cc(-c2ccc3c(N4CCN(c5ccc(Cc6ccccc6)cc5)CC4)cnn3c2)cn1 [Compound 150, 3-(4-(4-benzylphenyl)piperazin-1-yl)-6-(1-methyl-1H-pyrazol-4-yl)pyrazolo[1,5-a]pyridine]",
4.57,,4.88,> 10,,,,"CN(Cc1ccccc1)S(=O)(=O)N1CCN(c2cnn3cc(-c4cnn(C)c4)ccc23)CC1 [Compound 158, N-benzyl-N-methyl-4-(6-(1-methyl-1H-pyrazol-4-yl)pyrazolo[1,5-a]pyridin-3-yl)piperazine-1-sulfonamide]",
6.75,,0.49,1.1,,,,"Cn1cc(-c2ccc3c(N4CCN(c5ncc(Cc6c[nH]c7ccccc67)cn5)CC4)cnn3c2)cn1 [Compound 173, 3-[(2-{4-[6-(1-methylpyrazol-4-yl)pyrazolo[1,5-a]pyridin-3-yl]piperazin-1-yl}pyrimidin-5-yl)methyl]-1H-indole]",
3.90,,1.48,2.08,,,,"CC(C)C(O)c1cnc(N2CCN(c3cnn4cc(-c5cnn(C)c5)ccc34)CC2)nc1 (stereo not drawn) [Compound 176, 2-methyl-1-(2-{4-[6-(1-methyl-1H-pyrazol-4-yl)pyrazolo[1,5-a]pyridin-3-yl]piperazin-1-yl}pyrimidin-5-yl)propan-1-ol]",
7.61,,4.70,5.28,,,,"CC(C)Cc1cnc(N2CCN(c3cnn4cc(-c5cnn(C)c5)ccc34)CC2)nc1 [Compound 189, 3-(4-(5-isobutylpyrimidin-2-yl)piperazin-1-yl)-6-(1-methyl-1H-pyrazol-4-yl)pyrazolo[1,5-a]pyridine]",
9.32,,10.35,0.467,,,,CC(C)(C)OC(=O)N1CCN(c2cnn3cc(-c4cnn(C5CCOCC5)c4)ccc23)CC1 [Compound 235],
3.90,,16.04,1.19,,,,"Cn1cc(-c2ccc3c(N4CCN(c5ncc(C(O)c6ccccc6)o5)CC4)cnn3c2)cn1 (stereo not drawn) [Compound 248, (2-(4-(6-(1-methyl-1H-pyrazol-4-yl)pyrazolo[1,5-a]pyridin-3-yl)piperazin-1-yl)oxazol-5-yl)(phenyl)methanol]",
8.56,,2.58,1.14,,,,"c1ccc(Cc2cnc(N3CCN(c4cnn5cc(-c6cn[nH]c6)ccc45)CC3)nc2)cc1 [Compound 255, 3-[4-(5-benzylpyrimidin-2-yl)piperazin-1-yl]-6-(1H-pyrazol-4-yl)pyrazolo-[1,5-a]pyridine]",
4.15,,8.70,3.2,,,,"C=C(c1ccc(F)cc1)c1cnc(N2CCN(c3cnn4cc(-c5cnn(C)c5)ccc34)CC2)nc1 [Compound 256, 3-(4-(5-(1-(4-fluorophenyl)vinyl)pyrimidin-2-yl)piperazin-1-yl)-6-(1-methyl-1H-pyrazol-4-yl)pyrazolo[1,5-a]pyridine]",
5.98,,12.61,0.517,,,,"COC(c1ccc(F)cc1)c1cnc(N2CCN(c3cnn4cc(-c5cnn(C)c5)ccc34)CC2)nc1 (stereo not drawn) [Compound 263, 3-(4-(5-((4-fluorophenyl)(methoxy)methyl)pyrimidin-2-yl)piperazin-1-yl)-6-(1-methyl-1H-pyrazol-4-yl)pyrazolo[1,5-a]pyridine]",
6.72,,5.22,0.0268,,,,"CC(=O)OC(c1ccc(F)cc1)c1cnc(N2CCN(c3cnn4cc(-c5cnn(C)c5)ccc34)CC2)nc1 (stereo not drawn) [Compound 264, (4-fluorophenyl)(2-(4-(6-(1-methyl-1H-pyrazol-4-yl)pyrazolo[1,5-a]pyridin-3-yl)piperazin-1-yl)pyrimidin-5-yl)methyl acetate]",
4.88,,14.20,0.00269,,,,"C[C@@H](OC(=O)N1CCN(c2cnn3cc(-c4cnn(C)c4)ccc23)CC1)c1ccc(F)c(F)c1 [Compound 266, (1R)-1-(3,4-difluorophenyl]ethyl 4-[6-(1-methyl-1H-pyrazol-4-yl)pyrazolo[1,5-a]pyridin-3-yl]piperazine-1-carboxylate]",
,,,,0.0108,7.10,6.11,"CN(C[C@@H]1COCCO1)S(=O)(=O)Nc1ccc2ccc3ncc(-c4cnn(C)c4)cc3c(=O)c2c1 [MK 2461, reference compound]",
